{
  "source": "patent US8933230B2",
  "about": "“Phosphorus-containing group-substituted quinoline, its preparation process, medical composition containing the compounds and application” (priority 2011, dated 2015)",
  "key": {"[1]": {"test_system": "GTL-16 human gastric cancer cells", "assay": "Anti-tumor experiment, GTL-16 xenograft in nude mice", "assay_type": "in vivo, BALB/c-nu/nu mice", "conditions": "after 14 days, 50 mg/kg qd p.o.", "source_text": "Anti-tumor experiments: in this example, N1-[4-[[7-[3-(diethoxyphosphorylmethylamino)propoxyl]-6-methoxyl-4-quinolyl]oxyl]-3-fluorophenyl]-N1′-(4-fluorophenyl)cyclopropane-1,1-dicarboxamide obtained from Example 3 is used in the anti-tumor experiments in nude mice animal model of xenograft GTL-16 human gastric cancer cells, the methods and results are as follows:\n7-8 weeks old SPF level female BALB/c-nu/nu mice with 16-20 g of body weights are purchased from Experimental Animal Center of Guangdong Province, inspection certificate number: NO:0072659. GTL-16 gastric cancer cells are purchased from the Cell Source Center of Shanghai Institutes for Biological Sciences. RPM 1-1640 cell culture medium, fetal calf serum (FBS) and digestive juice of trypsin are from Gibco Corporation. All the antibiotics are purchased from Sigma Company.\n(§1) Firstly culturing the GTL-16 gastric cancer cells: GTL-16 cell line is inoculated in RPM 1-1640 culture solution containing 10% FBS, 100 U/ml penicillin, 100 U/ml streptomycin, and cultured at 37° C., 5% CO2, 100% humidity in a carbon dioxide cell incubator, the cells enter into logarithmic growth phase after 24 hours, after 48 hours of inoculation, the cells grow to cover the bottom of the culture bottle. […]"}, "[2]": {"assay": "Body weight of GTL-16 tumor-bearing nude mice under treatment", "assay_type": "in vivo, BALB/c-nu/nu mice", "conditions": "after treating for 14 days, 50 mg/kg qd p.o.", "description": "as §1, with “bottle. Then the GTL-16 cells covering 80% bottom of the culture bottle are digested, 5 minutes after centrifuging at 1000 r/min, the cells are diluted to 2×10^7/ml and implanted subcutaneously in the right anterior axillary fossa with 0.1 ml per mouse.” for “bottle.”"}},
  "data": [
    {"smiles": "CCOP(=O)(CNCCCOc1cc2nccc(Oc3ccc(NC(=O)C4(C(=O)Nc5ccc(F)cc5)CC4)cc3F)c2cc1OC)OCC", "note": "[Example 3, N1-[4-[[7-[3-(diethoxyphosphorylmethylamino)propoxyl]-6-methoxyl-4-quinolyl]oxyl]-3-fluorophenyl]-N1′-(4-fluorophenyl)cyclopropane-1,1-dicarboxamide]", "values": [
      {"measurement": "Tumor Growth Inhibition (TGI)", "setting": "[1]", "result": 85, "unit": "%"},
      {"measurement": "average tumor volume", "setting": "[1]; mean±SD, n=8", "result": "57.1±61.2", "unit": "mm^3"},
      {"measurement": "body weight change", "setting": "[2]", "result": "< 5", "unit": "%"}
    ]}
  ]
}
